The values below come from patent US7098195B2, “Fluorinated glucosamine analogs useful for modulating post-translational glycosylations on cells” (Health Research, Inc., priority 2001, dated 2006).

In data set [1] the test system is (Galβ1,4GlcNAc)n (LEA staining). Put plainly: Lectin blot with LEA of CLA+ T-cell lysates. In kind it is cell-based, human. The note with it: compared with PBS or GlcNAc treatments. The procedure: For lectin blotting, cell lysates (25 μg/spot) were spotted onto methanol-permeabilized PVDF membrane and blocked in FBS for 1 h at RT. Blots were then probed with AP-Canavalia ensiformis agglutinin (ConA) (2.0 μg/ml PBS; specificity: α-mannose), AP-Triticum vulgaris (Wheat germ) agglutinin (WGA) (0.5 μg/ml PBS; specificity: terminal GlcNAc or GlcNAcβ1,4GlcNAc) or AP-Lycopersicon esculentum (tomato lectin) agglutinin (LEA) (1.0 μg/ml PBS; specificity: (Galβ1,4GlcNAc)n) for 1 h at RT (All lectins from EY Labs., Inc., San Mateo, Calif.). After washing 3× in PBS/0.1% Tween-20 and 1× in PBS (10 min each), blots were developed with Western Blue®.
To analyze and identify the glycan modifications on CLA^+ T-cells treated with 4-F-GlcNAc, lectin blotting experiments were performed with ConA (Specificity: α-mannose), WGA (Specificity: terminal GlcNAc or GlcNAcβ1,4GlcNAc) and LEA (Specificity: {Galβ1,4GlcNAc}n).

The test system of data set [2] is HCELL/CD44 activity on human hematopoietic KG1a cells. Put plainly: Stamper-Woodruff adhesion assay, L-selectin-dependent lymphocyte adherence to KG1a cells. The format is cell-based. Conditions: KG1a neuraminidase then recovery in 0.02 mM.
The subject of another data set is C57BL6 mice. Put plainly: DNFB-induced delayed type hypersensitivity (ear swelling) in mice. The format is in vivo, mouse. On the procedure:
(§1) Previous studies evaluating the anti-tumor and anti-metastatic effects of fluorinated hexosamine analogs and 3 or 4-F-GlcNAc, specifically, indicate that the dose limiting toxicity was ˜250 mg/kg×6 days and that i.p. administration of these sugar analogs was an efficacious mode of delivery. Thus, in these studies, a maximal dose of 250 mg/kg as well as 100 and […] doses were used in order to make both toxic and efficacy assessments of fluorinated hexosamine analog anti-inflammatory effects. To induce delayed type hypersensitivity (DTH), C57BL6 mice were sensitized on their abdomen on days 0 and 1 with 25 μl of 0.5% 2,4-dinitrofluorobenzene (DNFB) (i.e. hapten) in a 4:1 solution of acetone to olive oil (vehicle). Negative control mice were sensitized with vehicle alone. Mice were then treated from days 0–6 with drug vehicle (0.9% saline), 50 mg/kg 4-F-GlcNAc, 100 mg/kg 4-F-GlcNAc, 250 mg/kg 4-F-GlcNAc or 250 mg/kg GlcNAc (negative sugar control). Hapten-induced inflammation was then promoted on day 6 by challenging the mice with 10 μl of 0.25% DNFB on both sides of the right ear and mice also received 10 μl of vehicle alone on both sides of the left ear as a negative inflammatory control. Ear swelling responses were measured 24 h later on day 7 and subtracted from baseline measurements that were recorded on day 6.
Histological analysis of right ears from mice receiving sensitizing and challenging hapten doses that were treated with saline vehicle control did show the presence of lymphocytic infiltrate and amount of lymphocytic infiltrate corresponded to ear swelling measurements (See FIG. 14 Panel B).

The conditions of data set [3]: previous studies; cited from earlier work.
Data set [4] concerns human colon HT-29 cancer cells. Conditions: HT-29 cells; cited from earlier work.
Data set [5] has as its system human ovarian, A121, tumor cells. The note with it: cited from earlier work.
Data set [6] can be described thus: Toxicity (body weight, white cell counts, tolerability) in DTH mice. In kind it is in vivo, mouse. The procedure: as §1, with “Thus,” for “Previous studies evaluating the anti-tumor and anti-metastatic effects of fluorinated hexosamine analogs and 3 or 4-F-GlcNAc, specifically, indicate that the dose limiting toxicity was ˜250 mg/kg×6 days and that i.p. administration of these sugar analogs was an efficacious mode of delivery. Thus,”

Another data set has as its system C57BL/6 mice. Put plainly: Langerhans cell migration to draining lymph nodes and FITC presentation in mice. In kind it is in vivo, mouse. Conditions: 250 mg/kg/day, cumulative dose of 750 mg/kg, 4-day experiment.

Description for C57BL/6 mice: Six to eight-week old C57BL/6 mice from Charles River Laboratories (Wilmington, Mass.) were housed in pathogen-free conditions in the animal facility at the Harvard Institutes of Medicine and utilized in these experiments. For analysis of LC migration to draining lymph nodes and antigenic presentation by dendritic cells (DC), right ears of mice were painted with 25 μl of 0.5% FITC, a contact sensitizing agent dissolved in acetone-dibutyl phthalate vehicle (1:1 v/v), while left ears were painted with 25 μl of vehicle alone. After 30 h, regional auricular/cervical lymph nodes draining right or left ears, respectively, were isolated and single cell suspensions were prepared. To enrich for DC, cell suspensions were subjected to Optiprep™ (Accurate Chemicals, Westbury, N.Y.) discontinuous gradient centrifugation. […] Positive cells stained with PE-anti-CD11c were gated and analyzed for FITC expression. […]
Following a 30 h incubation, CD11c-positive LC isolated from the draining lymph nodes were analyzed for FITC expression by flow cytometry.

Take tunicamycin: the “LEA staining of lysates” value in data set [1] is reported as “eliminated”. For the same compound, in data set [2], the “% Inhibition (lymphocyte binding)” value is 99% and the “Mean Lymphocyte Binding” value came out at 3.0.

Consider `CC(=O)N[C@H]1C(O)O[C@H](CO)[C@@H](O)[C@@H]1O` (stereo partly shown) [GlcNAc, N-acetylglucosamine], for which the “inflammatory response (ear swelling)” value in the data set with C57BL6 mice (250 mg/kg negative sugar control, days 0–6) is on record as “no anti-inflammatory effect”.

As to `CC(=O)N[C@H]1C(OC(C)=O)O[C@H](COC(C)=O)[C@@H](F)[C@@H]1OC(C)=O` (stereo partly drawn) [4-F-GlcNAc, 2-acetamido-2-deoxy-1,3,6-tri-O-acetyl-4-deoxy-4-fluoro-D-glucopyranose], the dose limiting toxicity in data set [3] was about 250 mg/kg×6 days. The “inflammatory response (ear swelling)” value is “statistically significant diminution” in the data set with C57BL6 mice (50 mg/kg, days 0–6, i.p., p<0.0002); “completely abrogated” with C57BL6 mice (100 mg/kg, days 0–6, i.p.); “completely abrogated” with C57BL6 mice (250 mg/kg, days 0–6, i.p.). Moreover, the “inflammatory responses in FucTVII −/− mice” value in the data set with C57BL6 mice (FucTVII −/− mice) was “further reduced”. For the same compound, the “radiolabeled sugar incorporation into cell surface glycoproteins” value in data set [4] was “inhibition of radiolabeled glucosamine, fucose and galactose incorporation”. In data set [5], the “incorporation of radiolabeled sugar precursors” value is reported as “conspicuous reductions”. For the same compound, the “LEA staining of lysates” value in data set [1] is on record as “notably diminished”. In addition, the WBC counts entry in data set [6] (50 mg/kg, days 0–6) was “did not affect”. In addition, the mouse body weight result in data set [6] (50 mg/kg, days 0–6) is “did not affect”. Further, the “reduction in body weight” value in data set [6] (250 mg/kg, days 0–6) is on record as about 5%. The “total white cell counts” value in data set [6] (250 mg/kg, days 0–6) was 60 % of drug controls. Further, the tolerability entry in data set [6] (250 mg/kg/d×6) is listed as “therapy-limiting”; in data set [6] (100 and 50 mg/kg/d×6 days), “well-tolerated”. Moreover, the weight gain entry in the data set on C57BL/6 mice is on record as “did not show similar weight gain”.
